Experiment [1] concerns LOLRI. Kind of experiment: A. Herbicidal pre-emergence action on harmful plants (Tables A). The experiment is classed as in vivo, Lolium rigidum. As to conditions: visual grading after ca. 3 weeks vs untreated controls, 100% = plants have died off, 0% = as control plants. In outline:
(§1)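 Values are visual percent damage relative to untreated controls, scored ca. 3 weeks after the compound was sprayed on the covering soil of sown pots (sandy loam) at rates up to 1280 g/ha, formulated as WP or EC with 0.5% additive.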

Experiment [2] deals with MATIN. The experiment is described as above. The experiment is classed as in vivo, Matricaria inodora. As to conditions: visual grading after ca. 3 weeks vs untreated controls, 100% = plants have died off, 0% = as control plants. In outline:
as §1

Experiment [3] deals with SETVI. The experiment is described as above. The experiment is classed as in vivo, Setaria viridis. As to conditions: visual grading after ca. 3 weeks vs untreated controls, 100% = plants have died off, 0% = as control plants. Put shortly: as §1
Experiment [4] has as its system ALOMY. Described as above. The experiment is classed as in vivo, Alopecurus myosuroides. Put shortly: as §1
Experiment [5] relates to DIGSA. Described as above. The experiment is classed as in vivo, Digitaria sanguinalis. Put shortly: as §1
Experiment [6] deals with POAAN. Kind of experiment: B. Herbicidal post-emergence action on harmful plants (Tables B). The experiment is classed as in vivo, Poa annua. Put shortly:
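Greenhouse weeds grown in sandy loam were sprayed post-emergence at the one-leaf stage, 2-3 weeks after sowing. Compounds were applied as WP or EC in water with 0.5% additive at 600 L/ha, at 1280 g/ha or below. Visual damage was rated after about 3 weeks versus untreated plants (0-100%).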

Experiment [7] has as its system ECHCG. Description: C. Herbicidal pre-emergence action, weed and crop plants (Tables C). The experiment is classed as in vivo, Echinochloa crus-galli. Put shortly: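 Seeds were sown in sandy loam and covered with soil. WP or EC formulations were sprayed onto the soil surface as aqueous suspension or emulsion with 0.5% additive, at rates of 320 g/ha or below. Plants were kept in a greenhouse, and damage was scored visually after about 3 weeks as % effect versus untreated controls (100% = dead, 0% = like control).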

Experiment [8] concerns BRSNW. Kind of experiment: D. Pre-emergence effects on crop plants (Tables D). As to conditions: crop plant. The experiment is classed as in vivo, Brassica napus. Put shortly:
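Seeds sown in sandy loam and covered; WP or EC formulations sprayed onto the soil surface as aqueous suspension/emulsion with 0.5% additive, at 320 g/ha or below. Greenhouse-grown; visual damage scored after ca. 3 weeks against untreated controls (0% = as control, 100% = plants dead).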

Experiment [9] concerns GLXMA. Kind of experiment: F. Post-emergence effects on crop plants (Tables F). The experiment is classed as in vivo, Glycine max. As to conditions: application rate 320 g/ha, crop plant. In outline: (§2)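 Plants were grown in sandy loam in a greenhouse and sprayed post-emergence at the single-leaf stage, 2–3 weeks after sowing. Visual damage was scored after ca. 3 weeks against untreated controls (0% = as control, 100% = dead).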

Experiment [10] concerns BRSNW. The experiment is described as above. The experiment is classed as in vivo, Brassica napus. As to conditions: application rate 320 g/ha, crop plant. Put shortly: as §2
Setting [11] is: application rate 320 g/ha, Table A9b.
The mark [12] stands for this setting: application rate 1280 g/ha, Table A9a.
The mark [13] stands for this setting: application rate 320 g/ha, Table A12b.
[14] abbreviates: application rate 1280 g/ha, Table A12a.
The mark [15] stands for this setting: application rate 1280 g/ha, Table B7a.
Where [16] appears, read: application rate 80 g/ha, Table C6b.
[17] abbreviates: application rate 320 g/ha, Table C6a.
Setting [18] is: application rate 80 g/ha, Table A12c.
[19] abbreviates: application rate 320 g/ha, Table B7b.

For the compound `CNC(=O)n1cc(C(=O)N2CCCC2Cc2ccccc2F)c(COC)n1` (racemic) [Example I-051], the “pre-emergence activity against LOLRI” value in [1] (application rate 80 g/ha), in experiment [1] (application rate 320 g/ha) and in experiment [1] (application rate 1280 g/ha) was 100% in each case. For the same compound, in experiment [2] (application rate 1280 g/ha), the “pre-emergence activity against MATIN” value is on record as 90%. In addition, the “pre-emergence activity against SETVI” value in experiment [3] (application rate 320 g/ha) and in experiment [3] (application rate 1280 g/ha) was 90% each time. Besides, the “pre-emergence activity against ALOMY” value in experiment [4] (setting [11]) and in [4] (setting [12]) was 90% each time. For the same compound, the “pre-emergence activity against DIGSA” value in experiment [5] (setting [13]) and in [5] (setting [14]) was 90% in each case. In addition, the “post-emergence activity against POAAN” value in experiment [6] (setting [15]) came out at 90%. Further, the “pre-emergence activity against ECHCG” value in [7] (setting [16]) and in experiment [7] (setting [17]) was 100% throughout. Besides, the “pre-emergence activity against BRSNW in %” value in experiment [8] (application rate 80 g/ha) and in [8] (application rate 320 g/ha) was 0% throughout. In experiment [9], the “post-emergence activity against GLXMA in %” value came to 10%. The “post-emergence activity against BRSNW in %” value in experiment [10] is 20%.

Consider `COCc1nn(C)cc1C(=O)N1CCCC1Cc1ccccc1F` (single isomer, unassigned) [Example I-003], for which the “pre-emergence activity against LOLRI” value in [1] (application rate 80 g/ha), in experiment [1] (application rate 320 g/ha) and in experiment [1] (application rate 1280 g/ha) was 100% in each case. The “pre-emergence activity against MATIN” value in experiment [2] (application rate 320 g/ha) and in experiment [2] (application rate 1280 g/ha) was 90% throughout. Further, the “pre-emergence activity against SETVI” value in experiment [3] (application rate 80 g/ha), in [3] (application rate 320 g/ha) and in experiment [3] (application rate 1280 g/ha) was 100% each time. The “pre-emergence activity against ALOMY” value in experiment [4] (setting [11]) and in experiment [4] (setting [12]) was 100% each time. Also, the “pre-emergence activity against DIGSA” value in [5] (setting [18]), in [5] (setting [13]) and in experiment [5] (setting [14]) was 100% in each case. The “post-emergence activity against POAAN” value in experiment [6] (application rate 80 g/ha, Table B7c) was found to be 90%; in experiment [6] (setting [19]) it was 90%; in experiment [6] (setting [15]) it was 90%. The “pre-emergence activity against ECHCG” value in experiment [7] (setting [16]) and in experiment [7] (setting [17]) was 90% each time. The “pre-emergence activity against BRSNW in %” value in [8] (application rate 80 g/ha) and in experiment [8] (application rate 320 g/ha) was 0% throughout. In experiment [9], the “post-emergence activity against GLXMA in %” value is 10%. The “post-emergence activity against BRSNW in %” value in experiment [10] is 0%.

As to `COCc1c(C(=O)N2CCCC2Cc2ccccc2F)cnn1C` (single isomer, unassigned) [Example I-157], the “pre-emergence activity against LOLRI” value in experiment [1] (application rate 320 g/ha) and in experiment [1] (application rate 1280 g/ha) was 90% throughout. In addition, the “pre-emergence activity against MATIN” value in [2] (application rate 1280 g/ha) turned out to be 90%. Moreover, the “pre-emergence activity against SETVI” value in experiment [3] (application rate 320 g/ha) and in experiment [3] (application rate 1280 g/ha) was 90% in each case. Also, the “pre-emergence activity against ALOMY” value in experiment [4] (setting [11]) and in experiment [4] (setting [12]) was 100% each time. Besides, the “pre-emergence activity against DIGSA” value in experiment [5] (setting [18]), in [5] (setting [13]) and in experiment [5] (setting [14]) was 100% throughout. Also, the “post-emergence activity against POAAN” value in [6] (setting [19]) and in experiment [6] (setting [15]) was 100% throughout. In addition, in experiment [7] (setting [17]), the “pre-emergence activity against ECHCG” value amounted to 80%. For the same compound, the “pre-emergence activity against BRSNW in %” value in [8] (application rate 80 g/ha) and in [8] (application rate 320 g/ha) was 0% in each case. In addition, the “post-emergence activity against GLXMA in %” value in experiment [9] worked out at 0%. The “post-emergence activity against BRSNW in %” value in experiment [10] is given as 0%.

Source of the values: EP4417602A1, “SUBSTITUTED PYRAZOLE CARBOXAMIDES, SALTS THEREOF AND THEIR USE AS HERBICIDALLY ACTIVE SUBSTANCES” (Bayer AG, priority 2023, dated 2024).
